Columns and labels:
Type in all cases: cell-based
E. coli BL21 = experiment: MIC against Gram-negative bacteria: E. coli BL21; conditions: 5×10^5 CFU/mL
Summary of the method: (§1)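 Broth microdilution, LB medium, final inoculum 5×10^5 CFU/mL from McFarland 0.5 cultures. Recombinant human EGF domain proteins tested in two-fold steps, n=3. MIC: lowest concentration, no growth.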

Proteus vulgaris = experiment: MIC against Gram-negative bacteria: Proteus vulgaris; conditions: 5×10^5 CFU/mL
Summary of the method: as §1

Citrobacter diversus = experiment: MIC against Gram-negative bacteria: Citrobacter diversus; conditions: 5×10^5 CFU/mL
Summary of the method: as §1

Aeromonas hydrophila = experiment: MIC against Gram-negative bacteria: Aeromonas hydrophila; conditions: 5×10^5 CFU/mL
Summary of the method: as §1

Pseudomonas aeruginosa = experiment: MIC against Gram-negative bacteria: Pseudomonas aeruginosa; conditions: 5×10^5 CFU/mL
Summary of the method: as §1

Moraxella catarrhalis = experiment: MIC against Gram-negative bacteria: Moraxella catarrhalis; conditions: 5×10^5 CFU/mL
Summary of the method: as §1

E. coli DH5α = experiment: Antibacterial activity: MIC and growth curve against E. coli DH5α in 96-well plate; conditions: minimal inhibitory concentration against E. coli DH5α; 96-well plate, 5×10^5 CFU/mL, 37° C., judged after 8 h
Summary of the method: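 Log-phase DH5α (OD600 about 0.5, 37° C, 185 rpm in LB) was pelleted, resuspended in fresh LB and seeded at 5×10^5 CFU/mL with recombinant protein at 50, 25 and 12.5 μg/mL (two-fold series), in triplicate. Plates were shaken at 175 rpm, 37° C, and OD600 was read every 30 min. MIC was the lowest concentration with no growth.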

Serratia marcescens = experiment: MIC against Gram-negative bacteria: Serratia marcescens; conditions: 5×10^5 CFU/mL
Summary of the method: as §1

Proteus mirabilis = experiment: MIC against Gram-negative bacteria: Proteus mirabilis; conditions: 5×10^5 CFU/mL
Summary of the method: as §1

Enterobacter cloacae = experiment: MIC against Gram-negative bacteria: Enterobacter cloacae; conditions: 5×10^5 CFU/mL
Summary of the method: as §1

Klebsiella pneumonia = experiment: MIC against Gram-negative bacteria: Klebsiella pneumonia; conditions: 5×10^5 CFU/mL
Summary of the method: as §1

[1] = Proteus vulgaris, 96-well plate, 37° C., 10 h
[2] = Citrobacter diversus, 96-well plate, 37° C., 10 h
[3] = Aeromonas hydrophila, 96-well plate, 37° C., 10 h
[4] = Pseudomonas aeruginosa, 96-well plate, 37° C., 10 h
[5] = Moraxella catarrhalis, 96-well plate, 37° C., 10 h
[6] = Serratia marcescens, 96-well plate, 37° C., 10 h
[7] = Proteus mirabilis, 96-well plate, 37° C., 10 h
[8] = Enterobacter cloacae, 96-well plate, 37° C., 10 h
[9] = Klebsiella pneumonia, 96-well plate, 37° C., 10 h
[10] = Proteus vulgaris, 10 h cultivation at 37° C.
[11] = Citrobacter diversus, 10 h cultivation at 37° C.
[12] = Aeromonas hydrophila, 10 h cultivation at 37° C.
[13] = Pseudomonas aeruginosa, 10 h cultivation at 37° C.
[14] = Moraxella catarrhalis, 10 h cultivation at 37° C.
[15] = Serratia marcescens, 10 h cultivation at 37° C.
[16] = Proteus mirabilis, 10 h cultivation at 37° C.
[17] = Enterobacter cloacae, 10 h cultivation at 37° C.
[18] = Klebsiella pneumonia, 10 h cultivation at 37° C.
[19] = 10 h cultivation at 37° C., two-fold serial dilution

PRT695 (DVDECHRVPPPCDLGRCENTPGSFLCVCPAGYQAAPHGASCQ; listed as Homo sapiens)
MIC E. coli BL21 (E. coli BL21; 96-well plate, 37° C., 10 h): 12.5 µg/mL | MIC P. vulgaris (Proteus vulgaris; 96-well plate, 37° C., 10 h): 50 µg/mL | MIC C. diversus (Citrobacter diversus; 96-well plate, 37° C., 10 h): 50 µg/mL | MIC A. hydrophila (Aeromonas hydrophila; 96-well plate, 37° C., 10 h): 25 µg/mL | MIC P. aeruginosa (Pseudomonas aeruginosa; 96-well plate, 37° C., 10 h): 25 µg/mL | MIC M. catarrhalis (Moraxella catarrhalis; 96-well plate, 37° C., 10 h): 50 µg/mL | MIC (E. coli DH5α): 25 µg/mL | MIC S. marcescens (Serratia marcescens; 96-well plate, 37° C., 10 h): 12.5 µg/mL | MIC P. mirabilis (Proteus mirabilis; 96-well plate, 37° C., 10 h): 12.5 µg/mL | MIC E. cloacae (Enterobacter cloacae; 96-well plate, 37° C., 10 h): 12.5 µg/mL | MIC K. pneumonia (Klebsiella pneumonia; 96-well plate, 37° C., 10 h): 25 µg/mL

PRT1271 (DTNECSINNGGCQQVCVNTVGSYECQCHPGYKLHWNKKDCV; listed as Homo sapiens)
MIC against E. coli BL21 (E. coli BL21; 96-well plate, 37° C., 10 h): 50 µg/mL | MIC against P. vulgaris (Proteus vulgaris; [1]): 50 µg/mL | MIC against C. diversus (Citrobacter diversus; [2]): 12.5 µg/mL | MIC against A. hydrophila (Aeromonas hydrophila; [3]): 50 µg/mL | MIC against P. aeruginosa (Pseudomonas aeruginosa; [4]): 12.5 µg/mL | MIC against M. catarrhalis (Moraxella catarrhalis; [5]): 50 µg/mL | MIC (E. coli DH5α): 25 µg/mL | MIC against S. marcescens (Serratia marcescens; [6]): 12.5 µg/mL | MIC against P. mirabilis (Proteus mirabilis; [7]): 12.5 µg/mL | MIC against E. cloacae (Enterobacter cloacae; [8]): 12.5 µg/mL | MIC against K. pneumonia (Klebsiella pneumonia; [9]): 50 µg/mL

PRT19 (CSCDPQGAVRDDCEQMTGLCSCKPGVAGPKCGQCPDGRALGPAGCEA; listed as Homo sapiens)
MIC (μg/mL) E. coli BL21 (E. coli BL21; 96-well plate, 37° C., 10 h): 12.5 µg/mL | MIC (μg/mL) P. vulgaris (Proteus vulgaris; [1]): 25 µg/mL | MIC (μg/mL) C. diversus (Citrobacter diversus; [2]): 25 µg/mL | MIC (μg/mL) A. hydrophila (Aeromonas hydrophila; [3]): 12.5 µg/mL | MIC (μg/mL) P. aeruginosa (Pseudomonas aeruginosa; [4]): 12.5 µg/mL | MIC (μg/mL) M. catarrhalis (Moraxella catarrhalis; [5]): 50 µg/mL | MIC (E. coli DH5α): 25 µg/mL | MIC (μg/mL) S. marcescens (Serratia marcescens; [6]): 50 µg/mL | MIC (μg/mL) P. mirabilis (Proteus mirabilis; [7]): 12.5 µg/mL | MIC (μg/mL) E. cloacae (Enterobacter cloacae; [8]): 50 µg/mL | MIC (μg/mL) K. pneumonia (Klebsiella pneumonia; [9]): 25 µg/mL

PRT1418 (IAHYLDRVVKEGCPGLCNGNGRCTLDLNGWHCVCQLGWRGAGCD; listed as Homo sapiens)
MIC against E. coli BL21 (E. coli BL21; 10 h cultivation at 37° C.): 12.5 µg/mL | MIC against P. vulgaris (Proteus vulgaris; [10]): 50 µg/mL | MIC against C. diversus (Citrobacter diversus; [11]): 12.5 µg/mL | MIC against A. hydrophila (Aeromonas hydrophila; [12]): 25 µg/mL | MIC against P. aeruginosa (Pseudomonas aeruginosa; [13]): 25 µg/mL | MIC against M. catarrhalis (Moraxella catarrhalis; [14]): 50 µg/mL | MIC (E. coli DH5α): 25 µg/mL | MIC against S. marcescens (Serratia marcescens; [15]): 25 µg/mL | MIC against P. mirabilis (Proteus mirabilis; [16]): 12.5 µg/mL | MIC against E. cloacae (Enterobacter cloacae; [17]): 25 µg/mL | MIC against K. pneumonia (Klebsiella pneumonia; [18]): 50 µg/mL

PRT18 (CQCNPHGSYGGTCDPATGQCSCRPGVGGLRCDRCEPGFWNFRGIVTDGRSGCTP; listed as Homo sapiens)
MIC (μg/mL) E. coli BL21 (E. coli BL21; 96-well plate, 37° C., 10 h): 50 µg/mL | MIC (μg/mL) P. vulgaris (Proteus vulgaris; [1]): 12.5 µg/mL | MIC (μg/mL) C. diversus (Citrobacter diversus; [2]): 12.5 µg/mL | MIC (μg/mL) A. hydrophila (Aeromonas hydrophila; [3]): 25 µg/mL | MIC (μg/mL) P. aeruginosa (Pseudomonas aeruginosa; [4]): 25 µg/mL | MIC (μg/mL) M. catarrhalis (Moraxella catarrhalis; [5]): 12.5 µg/mL | MIC (E. coli DH5α): 12.5 µg/mL | MIC (μg/mL) S. marcescens (Serratia marcescens; [6]): 12.5 µg/mL | MIC (μg/mL) P. mirabilis (Proteus mirabilis; [7]): 25 µg/mL | MIC (μg/mL) E. cloacae (Enterobacter cloacae; [8]): 50 µg/mL | MIC (μg/mL) K. pneumonia (Klebsiella pneumonia; [9]): 100 µg/mL

PRT1400 (VCSVDCGTHGVCIGGACRCEEGWTGAACD; listed as Homo sapiens)
MIC against E. coli BL21 (E. coli BL21; 10 h cultivation at 37° C.): 12.5 µg/mL | MIC against P. vulgaris (Proteus vulgaris; [10]): 12.5 µg/mL | MIC against C. diversus (Citrobacter diversus; [11]): 12.5 µg/mL | MIC against A. hydrophila (Aeromonas hydrophila; [12]): 50 µg/mL | MIC against P. aeruginosa (Pseudomonas aeruginosa; [13]): 50 µg/mL | MIC against M. catarrhalis (Moraxella catarrhalis; [14]): 50 µg/mL | MIC (E. coli DH5α): 50 µg/mL | MIC against S. marcescens (Serratia marcescens; [15]): 25 µg/mL | MIC against P. mirabilis (Proteus mirabilis; [16]): 12.5 µg/mL | MIC against E. cloacae (Enterobacter cloacae; [17]): 25 µg/mL | MIC against K. pneumonia (Klebsiella pneumonia; [18]): 12.5 µg/mL

PRT594 (CACNNNIDVTDPESCSRVTGECLRCLHNTQGANCQLCKPGHYGSALNQTCRR; listed as Homo sapiens)
MIC E. coli BL21 (E. coli BL21; 96-well plate, 37° C., 10 h): 25 µg/mL | MIC P. vulgaris (Proteus vulgaris; 96-well plate, 37° C., 10 h): 12.5 µg/mL | MIC C. diversus (Citrobacter diversus; 96-well plate, 37° C., 10 h): 50 µg/mL | MIC A. hydrophila (Aeromonas hydrophila; 96-well plate, 37° C., 10 h): 12.5 µg/mL | MIC P. aeruginosa (Pseudomonas aeruginosa; 96-well plate, 37° C., 10 h): 50 µg/mL | MIC M. catarrhalis (Moraxella catarrhalis; 96-well plate, 37° C., 10 h): 12.5 µg/mL | MIC (E. coli DH5α): 12.5 µg/mL | MIC S. marcescens (Serratia marcescens; 96-well plate, 37° C., 10 h): 50 µg/mL | MIC P. mirabilis (Proteus mirabilis; 96-well plate, 37° C., 10 h): 50 µg/mL | MIC E. cloacae (Enterobacter cloacae; 96-well plate, 37° C., 10 h): 50 µg/mL | MIC K. pneumonia (Klebsiella pneumonia; 96-well plate, 37° C., 10 h): 12.5 µg/mL

PRT1057 (DIDECEMGVPVCPPASSKCINTEGGYVCRCSEGYQGDGIHCL; listed as Homo sapiens)
MIC E. coli BL21 (E. coli BL21; [19]): 50 µg/mL | MIC P. vulgaris (Proteus vulgaris; [19]): 50 µg/mL | MIC C. diversus (Citrobacter diversus; [19]): 25 µg/mL | MIC A. hydrophila (Aeromonas hydrophila; [19]): 50 µg/mL | MIC P. aeruginosa (Pseudomonas aeruginosa; [19]): 25 µg/mL | MIC M. catarrhalis (Moraxella catarrhalis; [19]): 12.5 µg/mL | MIC (E. coli DH5α): 25 µg/mL | MIC S. marcescens (Serratia marcescens; [19]): 25 µg/mL | MIC P. mirabilis (Proteus mirabilis; [19]): 25 µg/mL | MIC E. cloacae (Enterobacter cloacae; [19]): 25 µg/mL | MIC K. pneumonia (Klebsiella pneumonia; [19]): 12.5 µg/mL

PRT628 (CTCNQHGTCDPNTGICVCSHHTEGPSCERCLPGFYGNPFAGQADDCQP; listed as Homo sapiens)
MIC E. coli BL21 (E. coli BL21; 96-well plate, 37° C., 10 h): 12.5 µg/mL | MIC P. vulgaris (Proteus vulgaris; 96-well plate, 37° C., 10 h): 12.5 µg/mL | MIC C. diversus (Citrobacter diversus; 96-well plate, 37° C., 10 h): 25 µg/mL | MIC A. hydrophila (Aeromonas hydrophila; 96-well plate, 37° C., 10 h): 12.5 µg/mL | MIC P. aeruginosa (Pseudomonas aeruginosa; 96-well plate, 37° C., 10 h): 25 µg/mL | MIC M. catarrhalis (Moraxella catarrhalis; 96-well plate, 37° C., 10 h): 12.5 µg/mL | MIC (E. coli DH5α): 12.5 µg/mL | MIC S. marcescens (Serratia marcescens; 96-well plate, 37° C., 10 h): 25 µg/mL | MIC P. mirabilis (Proteus mirabilis; 96-well plate, 37° C., 10 h): 25 µg/mL | MIC E. cloacae (Enterobacter cloacae; 96-well plate, 37° C., 10 h): 25 µg/mL | MIC K. pneumonia (Klebsiella pneumonia; 96-well plate, 37° C., 10 h): 12.5 µg/mL

PRT815 (YGPSCQTRCSCANDGHCHPATGHCSCAPGWTGFSCQ; listed as Homo sapiens)
MIC (μg/mL) E. coli BL21 (E. coli BL21; 10 h cultivation at 37° C.): 12.5 µg/mL | MIC (μg/mL) P. vulgaris (Proteus vulgaris; P. vulgaris, 10 h cultivation at 37° C.): 12.5 µg/mL | MIC (μg/mL) C. diversus (Citrobacter diversus; C. diversus, 10 h cultivation at 37° C.): 25 µg/mL | MIC (μg/mL) A. hydrophila (Aeromonas hydrophila; A. hydrophila, 10 h cultivation at 37° C.): 12.5 µg/mL | MIC (μg/mL) P. aeruginosa (Pseudomonas aeruginosa; P. aeruginosa, 10 h cultivation at 37° C.): 12.5 µg/mL | MIC (μg/mL) M. catarrhalis (Moraxella catarrhalis; M. catarrhalis, 10 h cultivation at 37° C.): 50 µg/mL | MIC (E. coli DH5α): 25 µg/mL | MIC (μg/mL) S. marcescens (Serratia marcescens; S. marcescens, 10 h cultivation at 37° C.): 25 µg/mL | MIC (μg/mL) P. mirabilis (Proteus mirabilis; P. mirabilis, 10 h cultivation at 37° C.): 25 µg/mL | MIC (μg/mL) E. cloacae (Enterobacter cloacae; E. cloacae, 10 h cultivation at 37° C.): 25 µg/mL | MIC (μg/mL) K. pneumonia (Klebsiella pneumonia; K. pneumonia, 10 h cultivation at 37° C.): 12.5 µg/mL
